Data: patent publication US6461856B2 (priority 1999, dated 2002)

Tested on: F420-dependent dehydrogenase (ORF 9)
Format: biochemical, Rhodococcus erythropolis HL PM-1

O=[N+]([O-])c1ccc(O)c([N+](=O)[O-])c1 [DNP, 2,4-dinitrophenol]
reduction of the substrate to its Meisenheimer complex upon addition of ORF 9 extract: reduces
